System: full-length human prolyl-4-hydroxylase domain (PHD) enzymes, PHD1 and PHD2
Assay: TR-FRET assay, selectivity of compounds for PHD1 over PHD2 (ratio of Kis calculated from IC50s)
Assay type: biochemical
Details: ratio of Kis (PHD2 Ki/PHD1 Ki), Kis calculated from TR-FRET IC50s by Cheng Prussoff equation; 1 uM 2-OG
Text: Time-resolved fluorescence resonance energy transfer (TR-FRET) assay was utilized to determine the enzymatic half maximal inhibitory concentration (IC50) value of PHD inhibitors against the full-length human prolyl-4-hydroxylase domain (PHD) enzymes, PHD1 and PHD2. The TR-FRET assay was developed based on the specific binding of hydroxylated HIF-la peptide with the complex formed by VHL, EloB and EloC (VBC), to generate a fluorescent signal. Terbium (Tb)-Donor (monoclonal antibody anti-6His-Tb-cryptate Gold) and D2-acceptor (streptavidin [SA]-D2) of TR-FRET are linked to the VBC complex and to HIF-1α peptide, respectively. The VBC complex binds specifically to the HIF-1α peptide when it is hydroxylated, allowing energy transfer from TR-FRET donor to acceptor (FIG. 1).
TR-FRET Reagents. Monoclonal antibody anti-6His-Tb-cryptate Gold (catalog #61HI2TLA) and streptavidin (SA)-D2 (catalog #610SADLA) were purchased from CisBio International (Bedford, MA, USA).
N-terminus biotinylated HIF-1α C35 synthetic peptide representing amino acids 547 to 581 and including the proline 564 PHD2 hydroxylation site was purchased from California Peptide Research (Salt Lake City, UT, USA).
VBC Complex. His-tagged recombinant VHL protein, EloB, EloC complex (His-VBC) was supplied by Axxam (Milan, Italy). Recombinant human VHL (National Center for Biotechnology Information [NCBI] accession number NP_00542.1) contained a His tag at the C-terminus of amino acids 55 to 213 and is referred to as VHL-His. VHL-His was co-expressed in E. coli with full-length human EloB (NCBI accession number Q15370.1) and full-length human EloC (NCBI accession number Q15369.1) and purified by affinity chromatography on a nickel-nitrilotriacetic acid (Ni-NTA) column as the His-VBC complex. Purity (˜80%) was assessed by sodium dodecyl sulfate polyacrylamide gel electrophoresis (SDS-PAGE).
PHD1. Recombinant human PHD1 protein (catalog #81064, Lot #24717001) was purchased from Active Motif (Carlsbad, CA, USA). PHD1 was expressed in a baculovirus expression system as the full-length protein (NCBI accession number NP_542770.2) with an N-terminal FLAG tag (molecular weight 44.9 kDa). Purity (>90%) was assessed by SDS-PAGE.
PHD2. The full-length human PHD2 enzyme was produced with a baculovirus infected insect cell (BIIC) expression system by Beryllium (Bedford, MA, USA). The PHD2 construct contained amino acids 1 to 426 of PHD2 (UniProt Knowledgebase[UniProtKB]/Swiss-Prot accession number Q9GZT9.1), and a His tag and a Tobacco Etch Virus (TEV) protease cleavage site at the N-terminus. The construct was expressed in Sf9 insect cells, purified by Ni-NTA column and digested with TEV protease to remove the His tag.
Compounds were preincubated with PHD enzyme in a 10 μL reaction volume in white 384-well Optiplate microplates (catalog #6007290, Perkin Elmer, Waltham, MA, USA). For this, 5 μL compound was serially diluted with dilution buffer (50 mM HEPES [4-(2-hydroxyethyl)-1-piperazineethanesulfonic acid] pH 7.5, 50 mM sodium chloride [NaCl], 0.01% Tween-20, 0.01% purified bovine serum albumin [BSA]) and mixed with 5 μL PHD enzyme mix prepared as a 4× concentrate in the dilution buffer containing PHD enzyme (60 nM PHD1, 20 nM PHD2, 140 nM PHD3), 40 μM ferrous ammonium sulfate (FAS), 4 mM sodium (Na) ascorbate. The plates were incubated for 30 minutes at room temperature without rotation.
Five microliters of the VBC/anti-6His-Tb-cryptate Gold mix prepared as a 4× concentrate in dilution buffer containing 20 nM His-VBC, 1.32 nM monoclonal antibody anti-6His-Tb-cryptate Gold was then added. This step was followed immediately by the addition of 5 μL of the HIF-1α C35 substrate mix prepared as a 4× concentrate in the dilution buffer containing 120 nM biotin-labeled HIF-1α C35, 132 nM SA-D2, 4 μM 2-oxoglutarate (2-OG) to reach a final reaction volume of 20 μL. […]

Row | Structure (SMILES) | Selectivity of PHD1 over PHD2 [fold]
1 | CC(C)(CNC(=O)c1ncc(-c2ccc3ccccc3c2)cc1O)C(=O)O [compound 17, 3-(3-hydroxy-5-(naphthalen-2-yl)picolinamido)-2,2-dimethylpropanoic acid] | ~1031
2 | CC(C)(CNC(=O)c1ncc(-c2cccc(COc3cccc4ccccc34)c2)cc1O)C(=O)O [compound 18, 3-(3-hydroxy-5-(3-((naphthalen-1-yloxy)methyl)phenyl)picolinamido)-2,2-dimethylpropanoic acid] | ~885
3 | CC(C)(CNC(=O)c1ncc(-c2cnn(CCN3CCOCC3)c2)cc1O)C(=O)O [compound 19, 3-(3-hydroxy-5-(1-(2-morpholinoethyl)-1H-pyrazol-4-yl)picolinamido)-2,2-dimethylpropanoic acid] | ~495
4 | CC(C)(CNC(=O)c1ncc(-c2cccc3ccccc23)cc1O)C(=O)O [compound 20, 3-(3-hydroxy-5-(naphthalen-1-yl)picolinamido)-2,2-dimethylpropanoic acid] | ~159
5 | CC(C)(CNC(=O)c1ncc(-c2cccc(O)c2)cc1O)C(=O)O [compound 21, 3-(3-hydroxy-5-(3-hydroxyphenyl)picolinamido)-2,2-dimethylpropanoic acid] | ~1494
6 | CC(C)(CNC(=O)c1ncc(-c2cccc(OCc3ccc(Cl)cc3)c2)cc1O)C(=O)O [compound 22, 3-(5-(3-((4-chlorobenzyl)oxy)phenyl)-3-hydroxypicolinamido)-2,2-dimethylpropanoic acid] | ~261
7 | CC(C)(CNC(=O)c1ncc(-c2ccc3cc(O)ccc3c2)cc1O)C(=O)O [compound 23, 3-(3-hydroxy-5-(6-hydroxynaphthalen-2-yl)picolinamido)-2,2-dimethylpropanoic acid] | ~113
8 | CC(C)(CNC(=O)c1ncc(-c2cccc(Oc3ccc(Cl)cc3)c2)cc1O)C(=O)O [compound 24, 3-(5-(3-(4-chlorophenoxy)phenyl)-3-hydroxypicolinamido)-2,2-dimethylpropanoic acid] | ~181
9 | CC(C)(CNC(=O)c1ncc(-c2cccc(Nc3ccc(Cl)cc3)c2)cc1O)C(=O)O [compound 25, 3-(5-(3-((4-chlorophenyl)amino)phenyl)-3-hydroxypicolinamido)-2,2-dimethylpropanoic acid] | ~213
10 | CC(C)(CNC(=O)c1ncc(-c2ccc3cc(Oc4ccc(Cl)cc4)ccc3c2)cc1O)C(=O)O [compound 26, 3-(5-(6-(4-chlorophenoxy)naphthalen-2-yl)-3-hydroxypicolinamido)-2,2-dimethylpropanoic acid] | ~31
11 | CC(C)(CNC(=O)c1ncc(-c2ccc3cc(OCc4ccc(Cl)cc4)ccc3c2)cc1O)C(=O)O [compound 27, 3-(5-(6-((4-chlorobenzyl)oxy)naphthalen-2-yl)-3-hydroxypicolinamido)-2,2-dimethylpropanoic acid] | ~24
12 | CC(C)(CNC(=O)c1ncc(-c2ccc3cc(OCCc4ccc(Cl)cc4)ccc3c2)cc1O)C(=O)O [compound 28, 3-(5-(6-(4-chlorophenethoxy)naphthalen-2-yl)-3-hydroxypicolinamido)-2,2-dimethylpropanoic acid] | ~9
13 | CC(C)(CNC(=O)c1ncc(-c2cccc(N)c2)cc1O)C(=O)O [compound 29, 3-(5-(3-aminophenyl)-3-hydroxypicolinamido)-2,2-dimethylpropanoic acid] | ~20
14 | CC(C)(CNC(=O)c1ncc(-c2cccc(NCc3ccc(Cl)cc3)c2)cc1O)C(=O)O [compound 30, 3-(5-(3-((4-Chlorobenzyl)amino)phenyl)-3-hydroxypicolinamido)-2,2-dimethylpropanoic acid] | ~223
15 | CC(C)(CNC(=O)c1ncc(-c2cccc(OCCc3ccc(Cl)cc3)c2)cc1O)C(=O)O [compound 31, 3-(5-(3-(4-chlorophenethoxy)phenyl)-3-hydroxypicolinamido)-2,2-dimethylpropanoic acid] | ~40
16 | CC(C)(C)OC(=O)N1CCC(n2cc(-c3cnc(C(=O)NCC(C)(C)C(=O)O)c(O)c3)cn2)CC1 [compound 32, 3-(5-(1-(1-(tert-butoxycarbonyl)piperidin-4-yl)-1H-pyrazol-4-yl)-3-hydroxypicolinamido)-2,2-dimethylpropanoic acid] | ~444
17 | CC(C)(C)OC(=O)N1CCc2sc(-c3cnc(C(=O)NCC(C)(C)C(=O)O)c(O)c3)cc2C1 [compound 33, 3-(5-(5-(tert-butoxycarbonyl)-4,5,6,7-tetrahydrothieno[3,2-c]pyridin-2-yl)-3-hydroxypicolinamido)-2,2-dimethylpropanoic acid] | ~1605
18 | CC(C)(CNC(=O)c1ncc(-c2cnn(-c3ccc(Cl)cc3Cl)c2)cc1O)C(=O)O [compound 34, 3-(5-(1-(2,4-dichlorophenyl)-1H-pyrazol-4-yl)-3-hydroxypicolinamido)-2,2-dimethylpropanoic acid] | ~24
19 | CC(C)(CNC(=O)c1ncc(-c2cc3nc(Cl)ccc3s2)cc1O)C(=O)O [compound 35, 3-(5-(5-chlorothieno[3,2-b]pyridin-2-yl)-3-hydroxypicolinamido)-2,2-dimethylpropanoic acid] | ~271
20 | CC(C)(CNC(=O)c1ncc(-c2ccc(S(=O)(=O)N3CCCC3)cc2CO)cc1O)C(=O)O [compound 36, 3-(3-hydroxy-5-(2-(hydroxymethyl)-4-(pyrrolidin-1-ylsulfonyl)phenyl)picolinamido)-2,2-dimethylpropanoic acid] | ~113
21 | CC(C)(CNC(=O)c1ncc(-c2cnn(-c3cccc(C(F)(F)F)c3)c2)cc1O)C(=O)O [compound 37, 3-(3-hydroxy-5-(1-(3-(trifluoromethyl)phenyl)-1H-pyrazol-4-yl)picolinamido)-2,2-dimethylpropanoic acid] | ~25
22 | CC(C)(CNC(=O)c1ncc(-c2cnn3c2CCCC3)cc1O)C(=O)O [compound 38, 3-(3-hydroxy-5-(4,5,6,7-tetrahydropyrazolo[1,5-a]pyridin-3-yl)picolinamido)-2,2-dimethylpropanoic acid] | ~49
23 | Cc1ccnc2ccc(-c3cnc(C(=O)NCC(C)(C)C(=O)O)c(O)c3)cc12 [compound 39, 3-(3-hydroxy-5-(4-methylquinolin-6-yl)picolinamido)-2,2-dimethylpropanoic acid] | ~230
24 | Cc1cccc2cc(-c3cnc(C(=O)NCC(C)(C)C(=O)O)c(O)c3)cnc12 [compound 40, 3-(3-hydroxy-5-(8-methylquinolin-3-yl)picolinamido)-2,2-dimethylpropanoic acid] | ~20
25 | COc1ccc2cc(-c3cnc(C(=O)NCC(C)(C)C(=O)O)c(O)c3)ccc2c1 [compound 41, 3-(3-hydroxy-5-(6-methoxynaphthalen-2-yl)picolinamido)-2,2-dimethylpropanoic acid] | ~1960
26 | CC(C)(CNC(=O)c1ncc(-c2ccc3cnccc3c2)cc1O)C(=O)O [compound 42, 3-(3-hydroxy-5-(isoquinolin-6-yl)picolinamido)-2,2-dimethylpropanoic acid] | ~197

— US20240336568A1, “SELECTIVE PHD1 INHIBITOR COMPOUNDS, COMPOSITIONS, AND METHODS OF USE” (Akebia Therapeutics, Inc., priority 2021, published 2024)
